Experimental data published in patent US6548528B2, “Pesticidal pyrazoles and derivatives” (Rhone-Poulenc Agro, priority 1996, dated 2003).

System: termites
Assay: Soil treatment at discrete locations around a house to be built, protection against termites (Example 1)
Type: in vivo
Details: for attack of termite observed: 1 year after building the house, 0.01 g/m^2 of soil at future corners and wall crossings, treated area 5 m per 10 m of perimeter
From the text: In an area where termites are passing or traveling, plans for a house are made. The plans are that the house will have a rectangular shape of 15 m×10 m with 4 rooms at the lower level.
Compound (A) is actually put on the soil at a rate of 0.01 g/m^2 of the soil at the location of the future corners of the house and at the crossing of the walls corresponding to each room according to the following scheme: [drawing 2]
The treated area represents 5 m per 10 m of perimeter.

SMILES	attack of termite observed	holes in parts of the walls, % of the volume (one year after building the house, similar experiment to Example 1)
N#Cc1nn(-c2c(Cl)cc(C(F)(F)F)cc2Cl)c(N)c1[S+]([O-])C(F)(F)F (stereo not drawn) [Compound (A), 5-amino 1-(2,6-dichloro 4-trifluoromethylphenyl) 4-trifluoromethylsulfinyl 3-cyanopyrazole]	no attack of termite	–
CCOP(=S)(OCC)Oc1nc(Cl)c(Cl)cc1Cl [chlorpyrifos]	strong attack of termites	more than 10%
